Usually EC50 stands for the concentration needed to bring the measured effect to its halfway point.

Test [1] addresses T1, porcine leukocyte 12/15-Lipoxygenase (Sus scrofa, UniProt P16469).
T1 sequence (P16469 1-663): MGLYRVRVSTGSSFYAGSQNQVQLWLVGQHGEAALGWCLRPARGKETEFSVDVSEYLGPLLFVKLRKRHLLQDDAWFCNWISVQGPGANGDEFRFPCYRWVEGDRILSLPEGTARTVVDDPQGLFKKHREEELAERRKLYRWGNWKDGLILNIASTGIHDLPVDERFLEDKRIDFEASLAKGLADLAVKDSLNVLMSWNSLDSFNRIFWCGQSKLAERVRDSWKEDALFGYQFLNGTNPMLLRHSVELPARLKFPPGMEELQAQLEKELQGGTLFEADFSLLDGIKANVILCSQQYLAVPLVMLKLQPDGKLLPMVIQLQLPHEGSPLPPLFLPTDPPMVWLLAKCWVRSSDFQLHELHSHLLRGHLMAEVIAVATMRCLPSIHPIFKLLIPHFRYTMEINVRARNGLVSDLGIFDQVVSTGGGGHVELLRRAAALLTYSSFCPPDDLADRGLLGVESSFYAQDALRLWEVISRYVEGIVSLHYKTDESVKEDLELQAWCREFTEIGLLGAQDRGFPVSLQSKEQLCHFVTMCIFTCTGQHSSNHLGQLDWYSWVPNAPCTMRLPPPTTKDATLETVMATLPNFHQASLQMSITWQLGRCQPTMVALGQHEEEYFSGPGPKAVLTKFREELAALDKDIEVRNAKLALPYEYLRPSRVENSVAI
The test can be described thus: 12/15-Lipoxygenase Enzyme Assay. Format: biochemical. Particulars: 70 μM arachidonic acid, 10 minute incubation at room temperature, FOX reagent, absorbance at 620 nm; read-out: inhibition of 12/15-Lipoxygenase with an IC50.

Test [2] concerns LTB4 production in human whole blood. The test can be described thus: Inhibition of LTB4 Production in Blood. The test is classed as cell-based. Particulars: 1 h, 20 μM A23187, 60 minutes at 37° C., LTB4 in plasma by ELISA, read-out: protection against LTB4 at an EC50. In a few lines: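 Citrated human whole blood preincubated 15 min at 37 °C with compound (top final 30 μM, 1:3 dilutions, quadruplicate), then stimulated with 20 μM A23187 for 60 min at 37 °C. Plasma LTB4 quantified by ELISA; IC50 from percent inhibition versus vehicle.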
(ELISA stands for enzyme-linked immunosorbent assay.)

Take `Cc1c(C)c2c(c(C)c1O)C1(CCC1)CC(C)(C)S2` [2′,2′,5′,7′,8′-pentamethyl-2′,3′-dihydrospiro[cyclobutane-1,4′-thiochromen]-6′-ol]: in test [1], the IC50 was below 5 µM. The EC50 in test [2] is below 10 µM. In the same order, the values of `COC(C)C1=Cc2c(C)c(O)c(C)c(C)c2OC12CCC2` (stereo not drawn) [3-(1-methoxyethyl)-5,7,8-trimethylspiro[chromene-2,1′-cyclobutan]-6-ol] are below 5 µM and below 10 µM. For `CCONCC1=Cc2c(cc(C)c(O)c2C)OC12CCC2` [3-[(ethoxyamino)methyl]-5,7-dimethylspiro[chromene-2,1′-cyclobutan]-6-ol], the IC50 in test [1] was below 5 µM. Moreover, in test [2], the EC50 was below 10 µM. In the same order, the values of `CCONC1CC2(CCC2)Sc2c(C)c(C)c(O)c(C)c21` (stereo not drawn) [4′-(ethoxyamino)-5′,7′,8′-trimethyl-3′,4′-dihydrospiro[cyclobutane-1,2′-thiochromen]-6′-ol] are below 5 µM and below 10 µM. For `CCONC1CC2(CCC2)Sc2cc(C)c(O)c(C)c21` (stereo not drawn) [4′-(ethoxyamino)-5′,7′-dimethyl-3′,4′-dihydrospiro[cyclobutane-1,2′-thiochromen]-6′-ol], in that order: below 5 µM and below 10 µM. In the same order, the values of `CONC1CC2(CCC2)Sc2c(C)c(C)c(O)c(C)c21` (stereo not drawn) [4′-(methoxyamino)-5′,7′,8′-trimethyl-3′,4′-dihydrospiro[cyclobutane-1,2′-thiochromen]-6′-ol] are below 5 µM and below 10 µM.

On to `CONC1CC2(CCC2)Sc2cc(C)c(O)c(C)c21` (stereo not drawn) [4′-(methoxyamino)-5′,7′-dimethyl-3′,4′-dihydrospiro[cyclobutane-1,2′-thiochromen]-6′-ol], for which the IC50 in test [1] was below 5 µM. Further, the EC50 in test [2] is below 10 µM.

`Cc1c(C)c2c(c(C)c1O)CCC1(CC1)O2` [5,7,8-trimethyl-3,4-dihydrospiro[chromene-2,1′-cyclopropan]-6-ol]: the IC50 in test [1] is below 5 µM. Further, in test [2], the EC50 is below 10 µM. For `Cc1cc2c(c(C)c1O)CCC1(CCC1)O2` [5,7-dimethyl-3,4-dihydrospiro[chromene-2,1′-cyclobutan]-6-ol], in that order: below 5 µM and below 10 µM.

On to `Cc1cc2c(c(C)c1O)CC1(CCC1)CO2` [5,7-dimethylspiro[chroman-3,1′-cyclobutan]-6-ol], for which, in test [1], the IC50 was below 5 µM. Moreover, the EC50 in test [2] is below 10 µM.

Consider `Cc1cc2c(c(C)c1O)C=CC1(CCC1)O2` [5,7-dimethylspiro[chromene-2,1′-cyclobutan]-6-ol], for which, in test [1], the IC50 is below 5 µM. Besides, in test [2], the EC50 was below 10 µM. `Cc1c(C)c2c(c(Cl)c1O)CCC1(CCC1)O2` [5-chloro-7,8-dimethyl-3,4-dihydrospiro[chromene-2,1′-cyclobutan]-6-ol]: the IC50 in test [1] was below 5 µM.

On to `Cc1c(C)c2c(c(C)c1O)C1(CCC1)CCS2` [5′,7′,8′-trimethyl-2′,3′-dihydrospiro[cyclobutane, 1,4′-thiochromen]-6′-ol], for which the IC50 in test [1] is below 5 µM. For the compound `CCO/N=C/C1=Cc2c(cc(C)c(O)c2C)OC12CCC2` [6-hydroxy-5,7-dimethylspiro[chromene-2,1′-cyclobutane]-3-carbaldehyde O-ethyloxime], the IC50 in test [1] was below 5 µM. Further, the EC50 in test [2] was below 10 µM. As for `CO/N=C1\CC2(CCC2)Sc2c(C)c(C)c(O)c(C)c21` [6′-hydroxy-5′,7′,8′-trimethylspiro[cyclobutane-1,2′-thiochroman]-4′(3′H)-one O-methyloxime], in test [1], the IC50 is below 5 µM. Besides, the EC50 in test [2] was below 10 µM.

For `Cc1c(O)cc2c(c1C)OC1(CCC1)CC2` [7,8-dimethyl-3,4-dihydrospiro[chromene-2,1′-cyclobutan]-6-ol], the IC50 in test [1] is below 5 µM. For the same compound, in test [2], the EC50 was below 10 µM. With `CC(C)(C)c1cc2c(cc1O)CCC1(CCC1)O2` [7-tert-butyl-3,4-dihydrospiro[chromene-2,1′-cyclobutan]-6-ol], the IC50 in test [1] was below 5 µM. Further, the EC50 in test [2] is below 10 µM. For `Cc1c(O)c(C(C)(C)C)cc2c1CCC1(CCC1)O2` [7-tert-butyl-5-methyl-3,4-dihydrospiro[chromene-2,1′-cyclobutan]-6-ol], in that order: below 5 µM and below 10 µM. With `CCc1cc2c(c(CC)c1O)CC(CSCC(=O)OC)C1(CCC1)O2` (stereo not drawn) [methyl 2-((5,7-diethyl-6-hydroxyspiro[chroman-2,1′-cyclobutane]-3-yl)methylthio)acetate], the IC50 in test [1] was below 5 µM. Further, the EC50 in test [2] was below 10 µM.

(Values after patent publication US7576094B2, “Spiro derivatives as lipoxygenase inhibitors” (Eli Lilly and Company, priority 2004, dated 2009).)
